Four molecules from PubChem BioAssay (NCI) can be followed below.

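Compound exposure: 48 hours, 5 concentrations, 96-well plates. TGI is the concentration that stops growth completely.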 Some results are limits rather than exact numbers.

The first assay relates to SK-OV-3 ovarian. The assay is described as follows: NCI tumour cell line growth inhibition, 48 h.
Molecule `Cc1ccc(NC(=O)/C(Cc2cc(=O)oc3cc(O)ccc23)=N\NC(=O)C[N+](C)(C)C)cc1C` returned a TGI of more than 100 µM.
As to `CC1OC(c2ccc3c(c2O)C(=O)C2=C(C3=O)C3(O)C(=O)CC(C)(O)CC3(O)C=C2)CC(O)C1O` (centres undefined), the TGI was more than 100 µM.

A further assay deals with RXF 393 renal. The assay is described as follows: NCI tumour cell line growth inhibition, 48 h.
`CC(=O)n1nc(-c2ccccc2)n(/N=C/c2ccc([N+](=O)[O-])o2)c1=O` yielded a TGI of 10.4 µM.
The molecule `Cc1ccc(NC(=O)/C(Cc2cc(=O)oc3cc(O)ccc23)=N\NC(=O)C[N+](C)(C)C)cc1C` yielded a TGI of more than 100 µM.
The molecule `CC1OC(c2ccc3c(c2O)C(=O)C2=C(C3=O)C3(O)C(=O)CC(C)(O)CC3(O)C=C2)CC(O)C1O` (centres undefined) gave a TGI of 26.8 µM.
Same read-out and setting: the same measure for `CCN(CC)CCO/N=C1\CC[C@H]2[C@@H]3CCc4cc(OC)ccc4[C@H]3CC[C@]12C`: 3.92 µM.

The subject of a further assay is DU-145 prostate. As to the kind of experiment: NCI tumour cell line growth inhibition, 48 h.
As to `CC(=O)n1nc(-c2ccccc2)n(/N=C/c2ccc([N+](=O)[O-])o2)c1=O`, the TGI worked out at 16.7 µM.
On the same count and under the same terms, under `Cc1ccc(NC(=O)/C(Cc2cc(=O)oc3cc(O)ccc23)=N\NC(=O)C[N+](C)(C)C)cc1C` stands more than 100 µM.
Still for that read-out and setting: the same measure for `CC1OC(c2ccc3c(c2O)C(=O)C2=C(C3=O)C3(O)C(=O)CC(C)(O)CC3(O)C=C2)CC(O)C1O` (centres undefined): 29.1 µM.
For `CCN(CC)CCO/N=C1\CC[C@H]2[C@@H]3CCc4cc(OC)ccc4[C@H]3CC[C@]12C`, the TGI stood at 16.7 µM.

Another assay has as its system SF-268 CNS. The assay is described as follows: NCI tumour cell line growth inhibition, 48 h.
`CC(=O)n1nc(-c2ccccc2)n(/N=C/c2ccc([N+](=O)[O-])o2)c1=O` returned a TGI of 14.1 µM.
Same read-out and setting: under `Cc1ccc(NC(=O)/C(Cc2cc(=O)oc3cc(O)ccc23)=N\NC(=O)C[N+](C)(C)C)cc1C` stands more than 100 µM; under `CC1OC(c2ccc3c(c2O)C(=O)C2=C(C3=O)C3(O)C(=O)CC(C)(O)CC3(O)C=C2)CC(O)C1O` (centres undefined), more than 60 µM; under `CCN(CC)CCO/N=C1\CC[C@H]2[C@@H]3CCc4cc(OC)ccc4[C@H]3CC[C@]12C`, 7.05 µM.

Another assay concerns HS 578T breast. As to the kind of experiment: NCI tumour cell line growth inhibition, 48 h.
The molecule `CC(=O)n1nc(-c2ccccc2)n(/N=C/c2ccc([N+](=O)[O-])o2)c1=O` returned a TGI of 38 µM.
The same measure, in the same setting: under `Cc1ccc(NC(=O)/C(Cc2cc(=O)oc3cc(O)ccc23)=N\NC(=O)C[N+](C)(C)C)cc1C` stands more than 100 µM; under `CC1OC(c2ccc3c(c2O)C(=O)C2=C(C3=O)C3(O)C(=O)CC(C)(O)CC3(O)C=C2)CC(O)C1O` (centres undefined), 53.2 µM; under `CCN(CC)CCO/N=C1\CC[C@H]2[C@@H]3CCc4cc(OC)ccc4[C@H]3CC[C@]12C`, 7.36 µM.

The next assay has as its system OVCAR-5 ovarian. As to the kind of experiment: NCI tumour cell line growth inhibition, 48 h.
In the case of `CC(=O)n1nc(-c2ccccc2)n(/N=C/c2ccc([N+](=O)[O-])o2)c1=O`, the TGI was determined as 10.2 µM.
Take `Cc1ccc(NC(=O)/C(Cc2cc(=O)oc3cc(O)ccc23)=N\NC(=O)C[N+](C)(C)C)cc1C`: the TGI was more than 100 µM.
The same measure, in the same setting: under `CC1OC(c2ccc3c(c2O)C(=O)C2=C(C3=O)C3(O)C(=O)CC(C)(O)CC3(O)C=C2)CC(O)C1O` (centres undefined) stands 31.8 µM; under `CCN(CC)CCO/N=C1\CC[C@H]2[C@@H]3CCc4cc(OC)ccc4[C@H]3CC[C@]12C`, 12.4 µM.

The next assay has as its system TK-10 renal. As to the kind of experiment: NCI tumour cell line growth inhibition, 48 h.
`CC(=O)n1nc(-c2ccccc2)n(/N=C/c2ccc([N+](=O)[O-])o2)c1=O` displayed a TGI of 25.5 µM.
Still for that read-out and setting: the same measure for `Cc1ccc(NC(=O)/C(Cc2cc(=O)oc3cc(O)ccc23)=N\NC(=O)C[N+](C)(C)C)cc1C`: more than 100 µM; for `CC1OC(c2ccc3c(c2O)C(=O)C2=C(C3=O)C3(O)C(=O)CC(C)(O)CC3(O)C=C2)CC(O)C1O` (centres undefined): 28.6 µM.
Still for that read-out and setting: the same measure for `CCN(CC)CCO/N=C1\CC[C@H]2[C@@H]3CCc4cc(OC)ccc4[C@H]3CC[C@]12C`: 15.9 µM.

The test system of the next assay is M14 melanoma. As to the kind of experiment: NCI tumour cell line growth inhibition, 48 h.
As to `CC(=O)n1nc(-c2ccccc2)n(/N=C/c2ccc([N+](=O)[O-])o2)c1=O`, the TGI turned out to be 4.08 µM.
With `Cc1ccc(NC(=O)/C(Cc2cc(=O)oc3cc(O)ccc23)=N\NC(=O)C[N+](C)(C)C)cc1C`, the TGI is more than 100 µM.
For the molecule `CC1OC(c2ccc3c(c2O)C(=O)C2=C(C3=O)C3(O)C(=O)CC(C)(O)CC3(O)C=C2)CC(O)C1O` (centres undefined), the TGI came to 30.7 µM.
On the same count and under the same terms, the same measure for `CCN(CC)CCO/N=C1\CC[C@H]2[C@@H]3CCc4cc(OC)ccc4[C@H]3CC[C@]12C`: 1.82 µM.

The next assay concerns A549 NSCLC. As to the kind of experiment: NCI tumour cell line growth inhibition, 48 h.
`CC(=O)n1nc(-c2ccccc2)n(/N=C/c2ccc([N+](=O)[O-])o2)c1=O` gave a TGI of 25 µM.
Take `Cc1ccc(NC(=O)/C(Cc2cc(=O)oc3cc(O)ccc23)=N\NC(=O)C[N+](C)(C)C)cc1C`: the TGI was more than 100 µM.
The molecule `CC1OC(c2ccc3c(c2O)C(=O)C2=C(C3=O)C3(O)C(=O)CC(C)(O)CC3(O)C=C2)CC(O)C1O` (centres undefined) displayed a TGI of more than 73.5 µM.
Still for that read-out and setting: the same measure for `CCN(CC)CCO/N=C1\CC[C@H]2[C@@H]3CCc4cc(OC)ccc4[C@H]3CC[C@]12C`: 6.96 µM.

In another assay the test system is A498 renal. As to the kind of experiment: NCI tumour cell line growth inhibition, 48 h.
The molecule `CC(=O)n1nc(-c2ccccc2)n(/N=C/c2ccc([N+](=O)[O-])o2)c1=O` had a TGI of 45 µM.
The same measure, in the same setting: the same measure for `Cc1ccc(NC(=O)/C(Cc2cc(=O)oc3cc(O)ccc23)=N\NC(=O)C[N+](C)(C)C)cc1C`: more than 100 µM; for `CC1OC(c2ccc3c(c2O)C(=O)C2=C(C3=O)C3(O)C(=O)CC(C)(O)CC3(O)C=C2)CC(O)C1O` (centres undefined): 34.5 µM.
On to `CCN(CC)CCO/N=C1\CC[C@H]2[C@@H]3CCc4cc(OC)ccc4[C@H]3CC[C@]12C`, for which the TGI is 9.28 µM.

Another assay deals with HL-60(TB) leukemia. As to the kind of experiment: NCI tumour cell line growth inhibition, 48 h.
The molecule `CC(=O)n1nc(-c2ccccc2)n(/N=C/c2ccc([N+](=O)[O-])o2)c1=O` showed a TGI of 9.73 µM.
`Cc1ccc(NC(=O)/C(Cc2cc(=O)oc3cc(O)ccc23)=N\NC(=O)C[N+](C)(C)C)cc1C` gave a TGI of more than 100 µM.
As to `CC1OC(c2ccc3c(c2O)C(=O)C2=C(C3=O)C3(O)C(=O)CC(C)(O)CC3(O)C=C2)CC(O)C1O` (centres undefined), the TGI was 4.07 µM.
Still for that read-out and setting: the same measure for `CCN(CC)CCO/N=C1\CC[C@H]2[C@@H]3CCc4cc(OC)ccc4[C@H]3CC[C@]12C`: 3.12 µM.

The next assay concerns MALME-3M melanoma. The assay is described as follows: NCI tumour cell line growth inhibition, 48 h.
Regarding `CC(=O)n1nc(-c2ccccc2)n(/N=C/c2ccc([N+](=O)[O-])o2)c1=O`, the TGI was determined as 16.5 µM.
Same read-out and setting: the same measure for `Cc1ccc(NC(=O)/C(Cc2cc(=O)oc3cc(O)ccc23)=N\NC(=O)C[N+](C)(C)C)cc1C`: more than 100 µM; for `CC1OC(c2ccc3c(c2O)C(=O)C2=C(C3=O)C3(O)C(=O)CC(C)(O)CC3(O)C=C2)CC(O)C1O` (centres undefined): 12.8 µM; for `CCN(CC)CCO/N=C1\CC[C@H]2[C@@H]3CCc4cc(OC)ccc4[C@H]3CC[C@]12C`: 3.28 µM.

The next assay deals with SNB-19 CNS. As to the kind of experiment: NCI tumour cell line growth inhibition, 48 h.
In the case of `CC(=O)n1nc(-c2ccccc2)n(/N=C/c2ccc([N+](=O)[O-])o2)c1=O`, the TGI was found to be 36.9 µM.
For `Cc1ccc(NC(=O)/C(Cc2cc(=O)oc3cc(O)ccc23)=N\NC(=O)C[N+](C)(C)C)cc1C`, the TGI is more than 100 µM.
On the same count and under the same terms, under `CC1OC(c2ccc3c(c2O)C(=O)C2=C(C3=O)C3(O)C(=O)CC(C)(O)CC3(O)C=C2)CC(O)C1O` (centres undefined) stands 58.8 µM.
On to `CCN(CC)CCO/N=C1\CC[C@H]2[C@@H]3CCc4cc(OC)ccc4[C@H]3CC[C@]12C`, for which the TGI is 25 µM.

A further assay deals with IGROV1 ovarian. As to the kind of experiment: NCI tumour cell line growth inhibition, 48 h.
As to `CC(=O)n1nc(-c2ccccc2)n(/N=C/c2ccc([N+](=O)[O-])o2)c1=O`, the TGI was 37.4 µM.
The same measure, in the same setting: under `Cc1ccc(NC(=O)/C(Cc2cc(=O)oc3cc(O)ccc23)=N\NC(=O)C[N+](C)(C)C)cc1C` stands more than 100 µM.
On the same count and under the same terms, under `CC1OC(c2ccc3c(c2O)C(=O)C2=C(C3=O)C3(O)C(=O)CC(C)(O)CC3(O)C=C2)CC(O)C1O` (centres undefined) stands 27.9 µM.
For `CCN(CC)CCO/N=C1\CC[C@H]2[C@@H]3CCc4cc(OC)ccc4[C@H]3CC[C@]12C`, the TGI is 10.2 µM.

A further assay relates to PC-3 prostate. As to the kind of experiment: NCI tumour cell line growth inhibition, 48 h.
As for `CC(=O)n1nc(-c2ccccc2)n(/N=C/c2ccc([N+](=O)[O-])o2)c1=O`, the TGI was determined as 30.9 µM.
As for `Cc1ccc(NC(=O)/C(Cc2cc(=O)oc3cc(O)ccc23)=N\NC(=O)C[N+](C)(C)C)cc1C`, the TGI is more than 100 µM.
Still for that read-out and setting: the same measure for `CC1OC(c2ccc3c(c2O)C(=O)C2=C(C3=O)C3(O)C(=O)CC(C)(O)CC3(O)C=C2)CC(O)C1O` (centres undefined): 65.7 µM.
Take `CCN(CC)CCO/N=C1\CC[C@H]2[C@@H]3CCc4cc(OC)ccc4[C@H]3CC[C@]12C`: the TGI came out at 9.29 µM.

A further assay deals with MCF7 breast. The assay is described as follows: NCI tumour cell line growth inhibition, 48 h.
With `CC(=O)n1nc(-c2ccccc2)n(/N=C/c2ccc([N+](=O)[O-])o2)c1=O`, the TGI is 13.8 µM.
